In patent US5314884A, “2-pyrimidinyl-1-piperazine derivatives processes for their preparation and medicaments containing them” (Troponwerke GmbH & Co., priority 1983, dated 1994):
Structures can show the parent of a compound that is named as a salt.

Columns and labels:
[1] = test system: amphetamine-induced stereotypic behaviour; test: Amphetamine potentiation; type: in vivo; conditions: ip; rat; i.p.; 2 mg/kg DL-amphetamine sulphate i.v.; read-out: ED50 (dose at which amphetamine-induced behaviour is potentiated by 50%)
Method: Substances having antidepressant effects potentiate the amphetamine-inducedstereotypic behaviour of the rat. The ED50 value which is given is the dose at which the behaviour induced after i.v. administration of 2 mg/kg DL-amphetamine sulphate is potentiated by 50%. Lit.: J. L. Howard et al., in: Antidepressants: Neurochemical, Behavioral and Clinical Perspectives, edited by S. J. Enna et al., Raven Press, New York, Pages 107-120, 1981.

[2] = biological target: T1, serotonin receptors from calf hippocampus (Bos taurus, UniProt F6Q2H9); test: Serotonin receptor binding (3H-serotonin displacement); conditions: read-out: Ki (concentration at which 50% of the 3H-serotonin employed is displaced)
T1 construct: serotonin receptors from calf hippocampus; from tissue; host or cells: calf hippocampus
T1 sequence (F6Q2H9 1-422): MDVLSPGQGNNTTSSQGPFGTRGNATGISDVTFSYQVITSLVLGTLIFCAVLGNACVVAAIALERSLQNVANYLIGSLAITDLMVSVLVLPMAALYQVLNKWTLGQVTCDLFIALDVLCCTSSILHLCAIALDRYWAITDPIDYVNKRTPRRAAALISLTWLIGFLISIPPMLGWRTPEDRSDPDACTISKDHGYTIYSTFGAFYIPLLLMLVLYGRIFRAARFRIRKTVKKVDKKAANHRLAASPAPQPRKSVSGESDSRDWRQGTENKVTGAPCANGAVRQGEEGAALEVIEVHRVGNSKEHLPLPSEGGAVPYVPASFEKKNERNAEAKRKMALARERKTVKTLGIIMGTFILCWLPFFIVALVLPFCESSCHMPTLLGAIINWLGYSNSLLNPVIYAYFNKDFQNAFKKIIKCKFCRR
From the text: The direct or indirect effect on the serotonergic system by, for example, anxiolytic, tranquillising, neuroleptic or antidepressant active compounds is known. Substances according to the invention interact specifically with serotonin receptors from calf hippocampus. The concentration at which 50% of the ^3 H-serotonin employed is displaced is reported (Ki values). Lit.: Peroutka, S. J. and S. H. Snyder, Molec. Pharmacol. 16, 687, 1979.

[3] = test system: Passive avoidance behaviour; test: Passive avoidance behaviour; type: in vivo; conditions: Rattus norvegicus, ip; rats; i.p.; electric shock, time to re-entry of darkened box; read-out: ED50 (text: minimum effective dose (MED))
From the text: After entering a darkened box, rats receive an electric shock and thus avoid reentering the box. Rats under the influence of anxiolytics enter the box in spite of having experience the shock. The time up to entry into the box is timed with a stopwatch. The minimum effective dose (MED) in mg/kg is reported.

[4] = test system: immobility; test: Behavioral Despair; type: in vivo; conditions: Rattus norvegicus, ip; rats; i.p.; glass cylinder filled with water; read-out: ED50 (dose at which immobility is reduced by 50%)
From the text: When placed in a glass cylinder filled with water, rats initially show vigorous swimming movements which alternate with phases of immobility which increase in length. Many antidepressants of a variety of chemical structures shorten the duration of this immobility. The ED50 value indicates the dose of a test substance at which the immobility during the period of the experiment is reduced by 50%.
Lit.: R. D. Porsolt et al., Europ. J. Pharmacol. 47, 379-391, 1978.

[5] = test system: shock-induced aggressive behaviour; test: Tedeschi test; type: in vivo; conditions: Mus musculus, ip; mice; i.p.; shock-induced aggression; read-out: ED50 (dose at which aggressive behaviour is reduced by 50%)
From the text: In mice, anxiolytics bring about a reduction in the shock-induced aggressive behaviour. The ED50 value indicates the dose at which the aggressive behaviour is reduced by 50% within the period of the experiment.
Lit.: Tedeschi et all, J. Pharmacol. Exp. Ther. 129, 28-34, 1954.

[6] = test system: ptosis induced by tetrabenazine; test: Tetrabenazine antagonism; type: in vivo; conditions: Mus musculus, ip; mice; i.p.; tetrabenazine 20 mg/kg i.p.; read-out: ED50 (dose at which tetrabenazine-induced ptosis is reduced to 50%)
Method: Antidepressants antagonise the ptosis induced by tetrabenazine in mice. The ED50 value indicates the dose at which the ptosis induced by tetrabenazine (20 mg/kg i.p.) is reduced to 50%. Lit.: J. L. Howard et al., in: Antidepressants; Neuochemical, Behavioral and Clinical Perspectives, edited by S. J. Enna et al., Raven Press, New York, pages 117-120, 1981.

SMILES	ED50 [1] [mg/kg]	IC50 [2] [nM]	ED50 [5] [mg/kg]	other results
O=C1c2ccccc2C(=O)N1CCCCN1CCN(c2ncccn2)CC1 [Example 1, 2-(4-(4-(2-pyrimidinyl)-1-piperazinyl)butyl)isoindole-1,3(2H)dione]	18	10		
O=C1c2ccccc2C(=O)N1CCCCN1CCN(c2ncc(-c3ccccc3)cn2)CC1 [Example 4, 2-(4-(4-(5-phenyl-2-pyrimidinyl)-1-piperazinyl)butyl)isoindole-1,3(2H)dion]	3		20	minimal effective dose [3]: 1 mg/kg; ED50 [4]: 12 mg/kg
O=C1c2ccccc2C(=O)N1CCCN1CCN(c2ncc(-c3ccccc3)cn2)CC1 [Example 6, 2-(3-(4-(5-Phenyl-2-pyrimidinyl)-1-piperazinyl)propyl)isoindole-1,3(2H)dione]			15	ED50 [6]: 40 mg/kg
O=C1c2ccccc2S(=O)(=O)N1CCCCN1CCN(c2ncccn2)CC1 [Example 7, 2-(4-(4-(2-Pyrimidinyl)-1-piperazinyl)butyl)-1,2-benzisothiazol-3-(2H)one 1,1-dioxide]			5	minimal effective dose [3]: 0.5 mg/kg
O=C1c2ccccc2C(=O)N1CCCCN1CCN(c2ncc(-c3c(F)cccc3Cl)cn2)CC1 [Example 8, 2-(4-(4-(5-(2-Chloro-6-fluorophenyl)-2-pyrimidinyl)-1-piperazinyl)butyl)-isoindole-1,3(2H)dione]	1		12	ED50 [4]: 33 mg/kg
O=C1c2cc(Cl)ccc2S(=O)(=O)N1CCCCN1CCN(c2ncccn2)CC1 [Example 10]		14		minimal effective dose [3]: 1 mg/kg
O=C1c2ccc(Cl)cc2S(=O)(=O)N1CCCCN1CCN(c2ncccn2)CC1 [Example 11, 2-(4-(4-(2-Pyrimidinyl)-1-piperazinyl)butyl)-6-chloro-1,2-benzisothiazol-3(2H)one 1,1-dioxide]		30		minimal effective dose [3]: 1 mg/kg
COc1ccc(-c2cnc(N3CCN(CCCCN4C(=O)c5ccccc5C4=O)CC3)nc2)cc1OC [Example 12, 2-(4-(4-(5-(3,4-Dimethoxyphenyl)- -2-pyrimidinyl)-1-piperazinyl)butyl)-isoindole-1,3(2H)dione]			16	ED50 [4]: 50 mg/kg
O=C1c2ccccc2C(=O)N1CCN1CCN(c2ncc(-c3ccc(Cl)cc3)cn2)CC1 [Example 15, 1-(2-(4-(5-(4-Chlorophenyl)-2-pyrimidinyl)-1-piperazinyl)ethyl)isoindole-1,3(2H)dione]			6	
O=C1c2ccccc2C(=O)N1CC(O)CN1CCN(c2ncc(-c3ccc(Cl)cc3)cn2)CC1 (stereo not drawn) [Example 18, 2-(3-(4-(5-(4-chlorophenyl)-2-pyrimidinyl)-1-piperazinyl)-2-hydroxypropyl)isoindole-1,3(2H)dione]			9	minimal effective dose [3]: 1 mg/kg; ED50 [6]: 21 mg/kg
O=C1Cc2ccccc2C(=O)N1CCCCN1CCN(c2ncccn2)CC1 [Example 19, 2-(4-(4-(2-pyrimidinyl)-1-piperazinyl)butyl)isoquinoline-1,3(2H,4H)dione]		30		
COc1ccc(-c2cnc(N3CCN(CCCCN4C(=O)Cc5ccccc5C4=O)CC3)nc2)cc1OC [Example 20, 2-(4-(4-(5-(3,4-Dimethoxyphenyl)-2-pyrimidinyl)-1-piperazinyl)butyl)-isoquinoline-1,3(2H,4H)dione]	5			
O=C1c2ccc([N+](=O)[O-])cc2S(=O)(=O)N1CCCCN1CCN(c2ncccn2)CC1 [Example 24, 2-(4-(4-(2-Pyrimidinyl)-1-piperazinyl)butyl)-6-nitro-1,2-benzisothiazol-3(2H)one 1,1-dioxide]		20		
O=C1Nc2ccccc2S(=O)(=O)N1CCCN1CCN(c2ncccn2)CC1 [Example 32, 2-(3-(4-(2-Pyrimidinyl)-1-piperazinyl)propyl)1,2,4-benzothiadiazin-3(4H)on 1,1-dioxide]		10		
O=C1Nc2ccccc2S(=O)(=O)N1CCCCN1CCN(c2ncccn2)CC1 [Example 33, 2-(4-(4-(2-Pyrimidinyl)-1-piperazinyl)butyl)-1,2,4-benzothiadiazin-3(4H)one 1,1-dioxide]		60		
CN1C(=O)N(CCCN2CCN(c3ncccn3)CC2)S(=O)(=O)c2ccccc21 [Example 36, 2-(3-(4-(2-Pyrimidinyl)-1-piperazinyl)propyl)-4-methyl-1,2,4-benzothiadiazin-3(4H)one 1,1-dioxide]		9		
CN1C(=O)N(CCCCN2CCN(c3ncccn3)CC2)S(=O)(=O)c2ccccc21 [Example 37, 2-(4-(4-(2-Pyrimidinyl)-1-piperazinyl)butyl)-4-methyl-1,2,4-benzothiadiazin-3(4H)one 1,1-dioxide]		80		
NCCCCN1CCN(c2ncc(-c3ccccc3)cn2)CC1 [Example 49, 1-(4-aminobutyl)-5-(5-phenyl-2-phenyl-2-pyrimidinyl)piperazine]	3			
NCCCCN1CCN(c2ncc(-c3c(F)cccc3Cl)cn2)CC1 [Example 50, 1-(4-Aminobutyl)-4-(5-(2-fluoro-6-chlorophenyl)-2-pyrimidinyl)piperazinehydrochloride]	3		32	
CCOC(=O)N1CCN(c2ncc(-c3ccccc3)cn2)CC1 [Example 54, ethyl 4-(5-phenyl-2-pyrimidinyl)-1-piperazinecarboxylate]	0.4		10	minimal effective dose [3]: 5 mg/kg; ED50 [4]: 20 mg/kg
c1ccc(-c2cnc(N3CCNCC3)nc2)cc1 [Example 60, 1-(5-phenyl-2-pyrimidinyl)piperazine]	16			ED50 [6]: 5 mg/kg
Fc1cccc(Cl)c1-c1cnc(N2CCNCC2)nc1 [Example 61, 1-(5-(2-Fluoro-6-chlorophenyl)-2-pyrimidinyl)piperazine]	5			
c1ccc2c(-c3cnc(N4CCNCC4)nc3)c[nH]c2c1 [Example 64, 1-(5-(3-Indolyl)-2-pyrimidinyl)piperazine]	2			ED50 [6]: 18 mg/kg
